24 compounds from patent publication US9981954B2, “2-(pyrazin-2-ylcarbonylaminomethyl) benzimidazolium compounds as epithelial sodium channel inhibitors” (Boehringer Ingelheim International GmbH, priority 2015, dated 2018) can be followed below.

Molecules are shown by their SMILES.

For this assay, the target named is T1, ENaC (Epithelial Sodium Channel), Mouse kidney M-1 cells (Mus musculus, UniProt Q61180+Q9WU38+Q9WU39).
T1 construct: Mouse kidney M-1 cells were cultivated in DMEM containing 5% FCS and 5 μM dexamethasone; endogenous in cells; host or cells: Mouse kidney M-1 cells (polarised on transwell filters, dexamethasone-treated)
T1 sequence (Q61180 1-699): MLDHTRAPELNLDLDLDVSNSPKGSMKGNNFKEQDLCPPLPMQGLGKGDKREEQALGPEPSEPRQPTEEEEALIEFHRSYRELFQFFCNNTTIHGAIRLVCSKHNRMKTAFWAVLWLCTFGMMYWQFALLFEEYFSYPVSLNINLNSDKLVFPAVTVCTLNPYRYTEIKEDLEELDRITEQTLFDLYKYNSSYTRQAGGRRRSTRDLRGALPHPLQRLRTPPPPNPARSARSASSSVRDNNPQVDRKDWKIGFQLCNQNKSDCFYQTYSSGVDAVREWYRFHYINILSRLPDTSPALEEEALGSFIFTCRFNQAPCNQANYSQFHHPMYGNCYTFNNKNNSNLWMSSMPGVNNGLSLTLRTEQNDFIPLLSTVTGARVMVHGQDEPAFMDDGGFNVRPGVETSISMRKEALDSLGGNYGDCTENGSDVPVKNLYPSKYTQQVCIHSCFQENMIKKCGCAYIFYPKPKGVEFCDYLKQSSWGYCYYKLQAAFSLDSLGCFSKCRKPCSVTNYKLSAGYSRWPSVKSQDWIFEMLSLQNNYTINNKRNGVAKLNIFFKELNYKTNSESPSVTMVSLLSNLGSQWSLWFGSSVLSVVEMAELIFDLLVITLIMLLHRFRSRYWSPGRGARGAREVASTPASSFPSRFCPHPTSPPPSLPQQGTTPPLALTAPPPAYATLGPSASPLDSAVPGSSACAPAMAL
T1 sequence (Q9WU38 1-638): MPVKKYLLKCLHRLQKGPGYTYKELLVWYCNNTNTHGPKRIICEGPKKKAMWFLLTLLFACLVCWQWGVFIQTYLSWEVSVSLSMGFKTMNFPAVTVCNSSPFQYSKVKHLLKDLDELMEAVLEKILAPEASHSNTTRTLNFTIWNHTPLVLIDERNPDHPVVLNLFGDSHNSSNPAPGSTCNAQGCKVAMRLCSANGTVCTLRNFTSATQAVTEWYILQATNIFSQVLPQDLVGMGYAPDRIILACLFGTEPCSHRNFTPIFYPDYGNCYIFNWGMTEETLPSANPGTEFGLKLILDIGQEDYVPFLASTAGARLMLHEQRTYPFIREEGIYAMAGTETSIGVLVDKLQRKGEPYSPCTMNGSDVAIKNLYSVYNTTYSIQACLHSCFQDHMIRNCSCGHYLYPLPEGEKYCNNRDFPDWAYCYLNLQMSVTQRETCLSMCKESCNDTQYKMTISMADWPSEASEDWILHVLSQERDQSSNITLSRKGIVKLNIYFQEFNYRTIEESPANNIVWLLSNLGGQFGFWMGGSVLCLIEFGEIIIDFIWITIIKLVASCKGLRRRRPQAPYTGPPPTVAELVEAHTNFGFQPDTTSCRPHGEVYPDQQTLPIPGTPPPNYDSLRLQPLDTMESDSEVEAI
T1 sequence (Q9WU39 1-655): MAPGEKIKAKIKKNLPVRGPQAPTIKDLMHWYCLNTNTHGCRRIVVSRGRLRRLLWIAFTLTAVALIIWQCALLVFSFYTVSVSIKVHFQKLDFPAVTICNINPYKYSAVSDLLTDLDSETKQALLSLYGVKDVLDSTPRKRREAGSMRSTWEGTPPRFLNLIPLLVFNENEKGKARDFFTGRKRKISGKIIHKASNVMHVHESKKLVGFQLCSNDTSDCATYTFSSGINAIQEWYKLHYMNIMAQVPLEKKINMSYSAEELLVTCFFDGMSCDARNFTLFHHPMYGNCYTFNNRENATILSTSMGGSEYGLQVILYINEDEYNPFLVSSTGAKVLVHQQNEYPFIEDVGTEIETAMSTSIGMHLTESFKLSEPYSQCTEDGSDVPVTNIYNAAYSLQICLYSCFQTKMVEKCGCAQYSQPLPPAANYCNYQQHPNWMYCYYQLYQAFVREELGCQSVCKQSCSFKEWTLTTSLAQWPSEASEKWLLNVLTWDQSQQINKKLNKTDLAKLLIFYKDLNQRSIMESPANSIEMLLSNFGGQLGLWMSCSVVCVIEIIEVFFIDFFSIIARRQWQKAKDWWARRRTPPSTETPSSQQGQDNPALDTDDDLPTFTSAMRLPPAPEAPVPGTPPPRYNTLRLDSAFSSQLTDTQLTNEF
As to the kind of experiment: Ussing Chamber assay: inhibition of amiloride sensitive short circuit current in M-1 cells. It counts as cell-based. Conditions: apical application, 37° C. The procedure:
Ussing Chamber: Mouse kidney M-1 cells were cultivated in DMEM containing 5% FCS and 5 μM dexamethasone for 10 to 12 days on polyester transwell filters. Filters were inserted into a teflon-coated well-plate which fit into the ussing chamber system. Prior to measurement the medium of M-1 cells was replaced with Caco-2 transport buffer (Invitrogen, Germany). During measurements, the Ussing chamber temperature was kept at 37° C. Short circuit currents (I_sc) were measured in the voltage-clamp mode with the software package Lab View for data acquisition and analysis. The transepithelial electrical resistance (TEER) was determined by the application of voltage steps of ±5 mV every 5 sec. Compounds were administered at a final concentration of 3 μM or at increasing concentrations (1-3-10 μM) to the apical solution. At the end of each experiment the amiloride sensitive I_SC was measured by adding 3 μM amiloride to the apical compartment. Results are expressed as inhibition in percent of the amiloride effect or as IC50.
Take `CC[n+]1c(CNC(=O)c2nc(Cl)c(N)nc2N)n(CCOCCOCCNC(=O)OC(C)(C)C)c2cc(OC)ccc21` [Example 1.01]: the IC50 – broadly, the midpoint of a concentration-inhibition curve – turned out to be 3 nM.
Turning to `CC[n+]1c(CNC(=O)c2nc(Cl)c(N)nc2N)n(CC2(CO)COC2)c2cc(OC)ccc21` [Example 1.02], half-maximal inhibition (IC50) required 2 nM.
In the case of `COc1ccc2c(c1)n(CCF)c(CNC(=O)c1nc(Cl)c(N)nc1N)[n+]2CCOCCOCCO` [Example 1.04], the IC50 is 2 nM.
Next, `C=CC[n+]1c(CNC(=O)c2nc(Cl)c(N)nc2N)n(CCOCCOCCO)c2ccc(OC)cc21` [Example 1.05]: 0.4 nM; `COc1ccc2c(c1)[n+](CCF)c(CNC(=O)c1nc(Br)c(N)nc1N)n2CCOCCOCCO` [Example 2.01]: 2 nM.
The result for `CCn1c(CNC(=O)c2nc(Cl)c(N)nc2N)[n+](CC(=O)N(CCOC)CCOC)c2ccc(OC)cc21` [Example 3.01] reads 10 nM; that for `CCNC(=O)C[n+]1c(CNC(=O)c2nc(Cl)c(N)nc2N)n(CC)c2cc(OC)ccc21` [Example 3.03], 4 nM.
For the compound `CCn1c(CNC(=O)c2nc(Cl)c(N)nc2N)[n+](CC(=O)NCCOC)c2ccc(OC)cc21` [Example 3.04], the IC50 is 3 nM.
`CCn1c(CNC(=O)c2nc(Cl)c(N)nc2N)[n+](CC(=O)N2CCN(C)CC2)c2ccc(OC)cc21` [Example 3.05] gave an IC50 of 12 nM.
Consider `CCn1c(CNC(=O)c2nc(Cl)c(N)nc2N)[n+](CC(=O)N(C)CCCN(C)C)c2ccc(OC)cc21` [Example 3.07], for which 39 nM corresponded to half-maximal inhibition (IC50).
In the case of `CCn1c(CNC(=O)c2nc(Cl)c(N)nc2N)[n+](CC(=O)N(C)CCN(C)C)c2ccc(OC)cc21` [Example 3.09], the midpoint of inhibition, the IC50, lay at 33 nM.
The compound `CCn1c(CNC(=O)c2nc(Cl)c(N)nc2N)[n+](CC(N)=O)c2ccc(OC)cc21` [Example 3.10] gave a 50% inhibitory concentration (IC50) of 1 nM.
Next, `CCn1c(CNC(=O)c2nc(Cl)c(N)nc2N)[n+](CC(=O)N2CCC(N(C)C)CC2)c2ccc(OC)cc21` [Example 3.11]: 110 nM; `CCn1c(CNC(=O)c2nc(Cl)c(N)nc2N)[n+](CC(=O)NC)c2ccc(OC)cc21` [Example 3.14]: 2 nM.
Consider `CCn1c(CNC(=O)c2nc(Cl)c(N)nc2N)[n+](CC(=O)N(CCO)CCO)c2ccc(OC)cc21` [Example 3.15], for which inhibition was half-maximal at 20 nM (IC50).
Consider `CCn1c(CNC(=O)c2nc(Cl)c(N)nc2N)[n+](CC(=O)NCCCN(C)C(=O)OC(C)(C)C)c2ccc(OC)cc21` [Example 3.17], for which the IC50 stood at 4 nM.
Next, `CCn1c(CNC(=O)c2nc(Cl)c(N)nc2N)[n+](CC(=O)N2CCCN(C(=O)OC(C)(C)C)CC2)c2ccc(OC)cc21` [Example 3.21]: 28 nM; `CCn1c(CNC(=O)c2nc(Cl)c(N)nc2N)[n+](CCCC(=O)NCCN(C)C)c2ccc(OC)cc21` [Example 4.01]: 1 nM; `CC[n+]1c(CNC(=O)c2nc(Cl)c(N)nc2N)n(CCOCCOCCNC(=O)c2nc(Cl)c(N)nc2N)c2cc(OC)ccc21` [Example 5.01]: 4 nM.
The compound `CC[n+]1c(CNC(=O)c2nc(Cl)c(N)nc2N)n(CCOCCOCCN)c2cc(OC)ccc21` [Example 6.02] yielded an IC50 of 4 nM.
Next, `CCn1c(CNC(=O)c2nc(Cl)c(N)nc2N)[n+](CC(=O)NC2CCNCC2)c2ccc(OC)cc21` [Example 6.03]: 17 nM; `CCn1c(CNC(=O)c2nc(Cl)c(N)nc2N)[n+](CC(=O)N2CCCNCC2)c2ccc(OC)cc21` [Example 6.04]: 63 nM.
Compound `CCn1c(CNC(=O)c2nc(Cl)c(N)nc2N)[n+](CCNS(C)(=O)=O)c2ccc(OC)cc21` [Example 9.01] gave an IC50 of 0.4 nM.
With `CC[n+]1c(CNC(=O)c2nc(Cl)c(N)nc2N)n(CC2(CCc3ccccc3)CCN(C(=O)NC3CCN(C)CC3)CC2)c2ccccc21` [Example 10.01], the half-maximal inhibitory concentration (IC50) was 2 nM.
